Experimental data published in patent US9944597B2, “Polysubstituted pyrroles having microtubule-disrupting, cytotoxic and antitumor activities and methods of use thereof” (THE BOARD OF REGENTS OF THE UNIVERSITY OF TEXAS SYSTEM, priority 2013, dated 2018).
Read-outs that look alike come from different tables or passages of the source.

Key:
[1] = system: MDA-MB-435 (human melanoma cancer cells); assay: Antiproliferative SRB assay, MDA-MB-435; assay type: cell-based; conditions: read-out: MDA-MB-435 Anti-Proliferative Activity, IC50
Description: (§1) Cell Culture. Various representative cancer and other cell lines were sourced and grown as described previously [Mooberry, S. L., et al., Mol. Pharm. 72, 132-140 (2007)]. MDA-MB-435 (human melanoma cancer cells), and MDA-MB-231 (human breast cancer cells) were grown in IMEM Richter's Medium (Life Technologies, Grand Island, N.Y.) with 10% FBS (Hyclone, Logan, Utah) and 25 μg/mL gentamicin sulfate (Life Technologies). A-10 (embryonic rat vascular smooth muscle cells) and HeLa (human cervical cancer cells), SK-OV-3 (human ovarian cancer cells) and SK-OV-3-MDR-1-M6/6 (a clone of the SK-OV-3 that was generated from SK-OV-3 cells by adenovirus-mediated expression of MDR1) were grown in Basal Medium Eagle (BME, Sigma-Aldrich, St. Louis, Mo.) containing Earle's salts, 50 μg/ml gentamicin sulfate, and 10% FBS. HeLa cells (a single-cell clone derived from transduction of HeLa cells with wild-type (WT) βIII-tubulin) were grown in Dulbecco's Modified Eagle's Medium (DMEM, Life Technologies) containing 50 μg/mL gentamicin sulfate and 10% FBS.
(§2) Antiproliferative Effects. The pyrrole compounds were evaluated for their antiproliferative effects in a panel of cancer cell lines. Cells were plated into 96-well plates at predetermined densities and allowed to attach and proliferate for 24 hr, and then the compounds were added. After a 48 hr exposure to the compounds, the cells were fixed with trichloroacetic acid and cellular protein was determined using the sulforhodamine B (SRB) assay (Skehan et al., J. Natl. Cancer Inst. 82, 1107-12, (1990); Boyd and Paull Drug Devel. Res. 34, 91-109, (1995)). Concentration response curves were constructed, and the IC50 (the concentration required to inhibit proliferation by 50%) values were determined from the linear portions of the log concentration-response curves as described previously [Tinley, T. L., et al., Cancer Res. 63, 3211-3220, (2003)] as shown in Table 48.

[2] = system: HeLa (human cervical cancer cells); assay: Antiproliferative SRB assay, HeLa; assay type: cell-based
Description: as §1, §2
(§3) First, drug resistance mediated by the expression of βIII tubulin was evaluated in an isogenic HeLa cell line pair. Expression of the βIII tubulin isotype is associated with clinical drug resistance to the taxanes in ovarian cancer, non small-cell lung cancer and breast cancer [Galmarini, C. M., et al., Clin. Cancer Res. 14, 4511-4516 (2008)]. Secondly, drug resistance mediated by the expression of the drug efflux pump protein, Pgp, was evaluated in the isogenic SK-OV-3 cell line pair. The expression of Pgp can lead to lower intracellular drug concentrations and diminished cytotoxic effects both in vitro and in vivo. All tubulin-binding anticancer drugs used currently in the clinic, except cabazitaxel, are substrates for Pgp, thus limiting their utility in drug resistant tumors [Penson, R. T., et al., Gynecol. Oncol. 93, 98-106 (2004)]. Differences in sensitivity between the parent and transformed cell line, indicative of resistance, was determined by calculating relative resistance (Rr) values in the two pairs of isogenic cell lines (dividing the IC50 of the expressing cell line by the IC50 of the parental cell line).

[3] = system: SK-OV-3 (human ovarian cancer cells); assay: Antiproliferative SRB assay, SK-OV-3; assay type: cell-based
Description: as §1, §2
as §3, with “The expression of Pgp can lead to lower intracellular drug concentrations and diminished cytotoxic effects both in vitro and in vivo.” left out

HeLa WT-β-III cells = assay: Antiproliferative SRB assay, βIII-tubulin expressing HeLa; assay type: cell-based, human; conditions: for IC50: Table 49, βIII tubulin expressing line, 48 hr, SRB assay; for Rr (β-III): relative resistance: IC50 of expressing line divided by IC50 of parental HeLa
Description: as §1, §2, §3

SK-OV-3-MDR-1-6/6 cells = assay: Antiproliferative SRB assay, Pgp expressing SK-OV-3; assay type: cell-based, human; conditions: for IC50: Table 49, Pgp expressing line, 48 hr, SRB assay; for Rr (Pgp): relative resistance: IC50 of expressing line divided by IC50 of parental SK-OV-3
Description: as §1, §2
as §3, with “The expression of Pgp can lead to lower intracellular drug concentrations and diminished cytotoxic effects both in vitro and in vivo.” left out

A-10 cells = assay: Cellular microtubule loss by indirect immunofluorescence; assay type: cell-based, rat; conditions: read-out: EC50 Values (nM) for Microtubule Loss in A-10 cells
Description: The effects of representative compounds on cellular microtubules were evaluated in A-10 (embryonic rat vascular smooth muscle cell line) cells using indirect immunofluorescence techniques as previously described (Tinley et al., Cancer Res. 63, 3211-20 (2003)). Cells were visualized using a Nikon Eclipse 80i fluorescence microscope and NIS Elements software. Changes in both interphase and mitotic microtubules were noted and photographed. The EC50 values, the concentration that causes approximately 50% loss of interphase microtubules was determined by evaluating a range of concentrations of each compound and the percent cellular microtubule depolymerization that was observed visually at each concentration was noted.
Microtubules were visualized by indirect immunofluorescence using a β-tubulin antibody, and the DNA was visualized with DAPI. A representative concentration response curve for NT-7-16 is also shown in FIG. 1 that was used to calculate its corresponding EC50 for microtubule loss. Concentration response curves for microtubule loss were plotted using data from at least three experiments for each compound and the corresponding EC50 values for microtubule loss are presented in Table 50.

[4] = Homo sapiens, MDA-MB-435, Table 48, 48 hr exposure, SRB assay
[5] = Homo sapiens, MDA-MB-435, Table 52
[6] = Homo sapiens, HeLa, Table 48, 48 hr exposure, read-out: HeLa Anti-Proliferative Activity, IC50
[7] = Homo sapiens, HeLa, Table 49, parental line, 48 hr, read-out: HeLa IC50
[8] = Homo sapiens, SK-OV-3, Table 48, 48 hr exposure, read-out: SK-OV-3 Anti-Proliferative Activity, IC50
[9] = Homo sapiens, SK-OV-3, Table 49, parental line, 48 hr, read-out: SK-OV-3 IC50
[10] = Rattus norvegicus, A10, Table 50, concentration causing approximately 50% loss of interphase microtubules
[11] = Table 49, parental line, 48 hr, read-out: HeLa IC50
[12] = Table 49, parental line, 48 hr, read-out: SK-OV-3 IC50
[13] = Table 50, concentration causing approximately 50% loss of interphase microtubules

Molecule	melting point [°C]	IC50 [1, 4] [nM]	IC50 [1, 5] [nM]	IC50 [2, 6] [nM]	IC50 [2, 7] [nM]	IC50 [3, 8] [nM]	IC50 [3, 9] [nM]	IC50 (HeLa WT-β-III cells; Homo sapiens, HeLa) [nM]	Rr (β-III) (HeLa WT-β-III cells)	IC50 (SK-OV-3-MDR-1-6/6 cells; Homo sapiens, SK-OV-3) [nM]	Rr (Pgp) (SK-OV-3-MDR-1-6/6 cells)	EC50 (A-10 cells; [10]) [nM]	other results
CCOC(=O)c1cc(-c2ccc(OC)c(OC)c2OC)c(C=O)[nH]1 [Example 1, 4-(2,3,4-trimethoxyphenyl)-5-formyl-1H-pyrrole 2-carboxylic acid ethyl ester]	138 to 140	–	–	–	–	–	–	–	–	–	–	–	–
CCOC(=O)c1[nH]c(CO)c(-c2ccc(OC)c(OC)c2OC)c1Br [Example 5, 3-Bromo-5-(hydroxymethyl)-4-(2,3,4-trimethoxyphenyl)-1H-pyrrole 2-carboxylic acid ethyl ester]	–	25.7 ± 0.8	25.7 ± 0.8	33.4 ± 0.8	33.4 ± 0.8	37.4 ± 1.3	37.4 ± 1.3	27.4 ± 3.1	0.8	46.6 ± 2.1	1.2	76	–
C=Cc1[nH]c(C(=O)OCC)c(Br)c1-c1ccc(OC)c(OC)c1OC [Example 7, 3-Bromo-5-vinyl-4-(2,3,4-trimethoxyphenyl)-1H-pyrrole 2-carboxylic acid ethyl ester]	–	17.6 ± 1	17.6 ± 1	23.8 ± 1.7	23.8 ± 1.7	26.6 ± 1.1	26.6 ± 1.1	20.5 ± 0.8	0.9	28.1 ± 1.9	1.1	54	–
CCOC(=O)c1[nH]c(/C=C\C(=O)OC)c(-c2ccc(OC)c(OC)c2OC)c1Br [Example 8a, Cis-3-Bromo-5-(3-methoxy-3-oxoprop-1-en-1-yl)-4-(2,3,4-trimethoxyphenyl)-1H-pyrrole-2-carboxylic acid ethyl ester]	–	23.9 ± 1.2	23.9 ± 1.2	14.8 ± 0.2	14.8 ± 0.2	16.4 ± 0.9	16.4 ± 0.9	26 ± 1	1.8	10.4 ± 0.9	0.6	55	–
CCOC(=O)c1[nH]c(/C=C/C(=O)OC)c(-c2ccc(OC)c(OC)c2OC)c1Br [Example 8b, Trans-3-Bromo-5-(3-methoxy-3-oxoprop-1-en-1-yl)-4-(2,3,4-trimethoxyphenyl)-1H-pyrrole-2-carboxylic acid ethyl ester]	–	9.3 ± 0.3	9.3 ± 0.3	10.9 ± 0.3	10.9 ± 0.3	22.3 ± 0.5	22.3 ± 0.5	19.4 ± 0.4	1.8	26.7 ± 0.3	1.2	24	–
CCOC(=O)c1[nH]c(C=NO)c(-c2ccc(OC)c(OC)c2OC)c1Br [Example 10c]	–	–	–	–	–	–	–	–	1.4	–	1.8	–	IC50 ([1]; Table 52): 14 ± 0.8 nM; IC50 [2, 11]: 18 ± 0.9 nM; IC50 [3, 12]: 23.1 ± 0.5 nM; IC50 (HeLa WT-β-III cells): 25 ± 1.4 nM; IC50 (SK-OV-3-MDR-1-6/6 cells): 41.6 ± 1.9 nM; EC50 (A-10 cells; [13]): 56.2 nM; EC50 (A-10 cells; Table 52): 56.2 nM
CCOC(=O)c1[nH]c(CNCCNC(=O)OC(C)(C)C)c(-c2ccc(OC)c(OC)c2OC)c1Br [Example 19, 3-Bromo-5-[((N-2-tert-butoxycarbonylamino)-ethylamino)-methyl]-4-(2,3,4-trimethoxyphenyl)-1H-pyrrole 2-carboxylic acid ethyl ester]	235 to 237	–	–	–	–	–	–	–	–	–	–	–	–
CCOC(=O)c1[nH]c(CNCCN)c(-c2ccc(OC)c(OC)c2OC)c1Br [Example 20, 5-[N-((2-Aminoethyl)amino)methyl]-3-Bromo-4-(2,3,4-trimethoxyphenyl)-1H-pyrrole 2-carboxylic acid ethyl ester]	135 to 137	–	–	–	–	–	–	–	–	–	–	–	–
Cis-3-Bromo-4-(2,3,4-trimethoxyphenyl)-5-oximino-1H-pyrrole 2-carboxylic acid ethyl ester [Example 10b]	–	–	–	–	–	–	–	–	1.1	–	1.5	–	IC50 ([1]; Table 48, 48 hr exposure, SRB assay): 25.3 ± 3.1 nM; IC50 ([1]; Table 52): 25.3 ± 3.1 nM; IC50 ([2]; Table 48, 48 hr exposure, read-out: HeLa Anti-Proliferative Activity, IC50): 29.4 ± 1 nM; IC50 [2, 11]: 29.4 ± 1 nM; IC50 ([3]; Table 48, 48 hr exposure, read-out: SK-OV-3 Anti-Proliferative Activity, IC50): 33.7 ± 1.3 nM; IC50 [3, 12]: 33.7 ± 1.3 nM; IC50 (HeLa WT-β-III cells): 31.3 ± 0.5 nM; IC50 (SK-OV-3-MDR-1-6/6 cells): 49.6 ± 2.4 nM; EC50 (A-10 cells; [13]): 108 nM; EC50 (A-10 cells; Table 52): 108 nM
